Values of other authors in patent US20160228384A1, “EMULSION CONTAINING TWO OILS AND STABILIZERS” (NANOMEDEX, LLC, priority 2015, published 2016).

Assays:
[1] = not given; remark: listed apart in the source

SMILES	Log P	Solubility in Water [1]	Water Solubility in Solvent [1]
CCCCCCCC(=O)OCC [Ethyl octanoate]	3.5	0.051 wt %	0.90 wt %
CCCCCCOC(C)=O [Hexyl acetate]	2.4	0.043 wt %	0.566 wt %
CCCCOC(C)=O [Butyl acetate]	1.8	0.64 wt %	0.98 wt %
CCCC(=O)OCC [Ethyl butyrate]	1.7	0.69 wt %	0.79 wt %
CCCCCC(=O)OCC [Ethyl hexanoate]	2.4	0.083 wt %	0.47 wt %
CCCCCCCCOC(C)=O [Octyl acetate]	3.4	0.018 wt %	0.02 wt %
